Values of other authors as cited in patent US20240315993A1, “ANTIPARASITIC COMPOUNDS” (Intervet Inc., priority 2021, published 2024).

Experiments:
[1] = tested on: Cabbage Looper (Trichoplusia ni); details: Cabbage Looper second instar larvae, 128-well diet tray, 50 μg/cm^2, five to seven days, average of eight wells; cited from earlier work
[2] = tested on: Yellow Fever Mosquito (Aedes aegypti); details: Aedes aegypti larvae about 1 day old, 96-well plate, scored after 3 days; cited from earlier work
[3] = tested on: Beet Armyworm (Spodoptera exigua); details: Beet Armyworm second instar larvae, 128-well diet tray, 50 μg/cm^2, five to seven days, average of eight wells; cited from earlier work

## O=C(Nc1ccc2c(ccn2Cc2ccccc2)c1)c1cc(NC(=O)C2C(c3cc(Cl)cc(Cl)c3)C2(Cl)Cl)ccc1Cl (stereo not drawn) [c37]
[1]
  Test B: Bioassay on CL, percent mortality rating: A (50-100)
[2]
  Test C: Bioassay on Yellow Fever Mosquito, mortality rating: D (No activity noticed in this bioassay)
[3]
  Test A: Bioassay on BAW, percent mortality rating: A (50-100)

## CN1C(=O)Cc2cc(NC(=O)c3cc(NC(=O)C4C(c5cc(Cl)cc(Cl)c5)C4(Cl)Cl)ccc3Cl)ccc21 (stereo not drawn) [c38]
[1]
  Test B: Bioassay on CL, percent mortality rating: A (50-100)
[2]
  Test C: Bioassay on Yellow Fever Mosquito, mortality rating: A (80-100)
[3]
  Test A: Bioassay on BAW, percent mortality rating: A (50-100)

## Cn1nc(NC(=O)c2cc(NC(=O)C3C(c4cc(Cl)cc(Cl)c4)C3(Cl)Cl)ccc2Cl)c2cc(C(F)(F)F)ccc21 (stereo not drawn) [c39]
[1]
  Test B: Bioassay on CL, percent mortality rating: A (50-100)
[2]
  Test C: Bioassay on Yellow Fever Mosquito, mortality rating: A (80-100)
[3]
  Test A: Bioassay on BAW, percent mortality rating: A (50-100)

## O=C(Nc1ccc(-c2nccs2)cc1)c1cc(NC(=O)C2C(c3cc(Cl)cc(Cl)c3)C2(Cl)Cl)ccc1Cl (stereo not drawn) [c41]
[1]
  Test B: Bioassay on CL, percent mortality rating: A (50-100)
[2]
  Test C: Bioassay on Yellow Fever Mosquito, mortality rating: A (80-100)
[3]
  Test A: Bioassay on BAW, percent mortality rating: A (50-100)

## Cc1cc(N(C)C(=O)OC(C)(C)C)ccc1NC(=O)c1cc(NC(=O)C2C(c3ccc(F)c(Cl)c3)C2(Cl)Cl)ccc1Cl (stereo not drawn) [c42]
[1]
  Test B: Bioassay on CL, percent mortality rating: D (No activity noticed in this bioassay)
[2]
  Test C: Bioassay on Yellow Fever Mosquito, mortality rating: D (No activity noticed in this bioassay)
[3]
  Test A: Bioassay on BAW, percent mortality rating: A (50-100)

## Cc1cc(N(C)C(=O)OC(C)(C)C)ccc1N(C)C(=O)c1cc(NC(=O)C2C(c3cc(Cl)cc(Cl)c3)C2(Cl)Cl)ccc1Cl (stereo not drawn) [c43]
[1]
  Test B: Bioassay on CL, percent mortality rating: A (50-100)
[2]
  Test C: Bioassay on Yellow Fever Mosquito, mortality rating: D (No activity noticed in this bioassay)
[3]
  Test A: Bioassay on BAW, percent mortality rating: A (50-100)

## Cc1cc(N(C)C(=O)OC(C)(C)C)ccc1N(C)C(=O)c1cc(NC(=O)C2C(c3cc(Cl)c(Cl)c(Cl)c3)C2(Cl)Cl)ccc1Cl (stereo not drawn) [c44]
[1]
  Test B: Bioassay on CL, percent mortality rating: D (No activity noticed in this bioassay)
[2]
  Test C: Bioassay on Yellow Fever Mosquito, mortality rating: D (No activity noticed in this bioassay)
[3]
  Test A: Bioassay on BAW, percent mortality rating: A (50-100)

## O=C(Nc1nc(-c2cccs2)cs1)c1cc(NC(=O)[C@H]2[C@H](c3cc(Cl)cc(Cl)c3)C2(Cl)Cl)ccc1Cl [c45]
[1]
  Test B: Bioassay on CL, percent mortality rating: A (50-100)
[2]
  Test C: Bioassay on Yellow Fever Mosquito, mortality rating: A (80-100)
[3]
  Test A: Bioassay on BAW, percent mortality rating: A (50-100)

## O=C(Nc1ccc2[nH]c(C(F)(F)F)cc2c1)c1cc(NC(=O)C2C(c3cc(Cl)cc(Cl)c3)C2(Cl)Cl)ccc1Cl (stereo not drawn) [c46]
[1]
  Test B: Bioassay on CL, percent mortality rating: A (50-100)
[2]
  Test C: Bioassay on Yellow Fever Mosquito, mortality rating: D (No activity noticed in this bioassay)
[3]
  Test A: Bioassay on BAW, percent mortality rating: A (50-100)

## CNc1ccc(NC(=O)c2cc(NC(=O)C3C(c4cc(Cl)c(Cl)c(Cl)c4)C3(Cl)Cl)ccc2Cl)c(C)c1 (stereo not drawn) [c47]
[1]
  Test B: Bioassay on CL, percent mortality rating: A (50-100)
[2]
  Test C: Bioassay on Yellow Fever Mosquito, mortality rating: A (80-100)
[3]
  Test A: Bioassay on BAW, percent mortality rating: A (50-100)

## CNc1ccc(N(C)C(=O)c2cc(NC(=O)C3C(c4cc(Cl)cc(Cl)c4)C3(Cl)Cl)ccc2Cl)c(C)c1 (stereo not drawn) [c48]
[1]
  Test B: Bioassay on CL, percent mortality rating: A (50-100)
[2]
  Test C: Bioassay on Yellow Fever Mosquito, mortality rating: D (No activity noticed in this bioassay)
[3]
  Test A: Bioassay on BAW, percent mortality rating: A (50-100)

## CNc1ccc(N(C)C(=O)c2cc(NC(=O)C3C(c4cc(Cl)c(Cl)c(Cl)c4)C3(Cl)Cl)ccc2Cl)c(C)c1 (stereo not drawn) [c49]
[1]
  Test B: Bioassay on CL, percent mortality rating: A (50-100)
[2]
  Test C: Bioassay on Yellow Fever Mosquito, mortality rating: A (80-100)
[3]
  Test A: Bioassay on BAW, percent mortality rating: A (50-100)

## N#Cc1cc([N+](=O)[O-])ccc1NC(=O)c1cc(NC(=O)C2C(c3cc(Cl)cc(Cl)c3)C2(Cl)Cl)ccc1Cl (stereo not drawn) [c51]
[1]
  Test B: Bioassay on CL, percent mortality rating: A (50-100)
[2]
  Test C: Bioassay on Yellow Fever Mosquito, mortality rating: A (80-100)
[3]
  Test A: Bioassay on BAW, percent mortality rating: A (50-100)

## Cc1ccc(NC(=O)c2cc(NC(=O)C3C(c4cc(Cl)cc(Cl)c4)C3(Cl)Cl)ccc2Cl)c([N+](=O)[O-])c1 (stereo not drawn) [c52]
[1]
  Test B: Bioassay on CL, percent mortality rating: A (50-100)
[2]
  Test C: Bioassay on Yellow Fever Mosquito, mortality rating: A (80-100)
[3]
  Test A: Bioassay on BAW, percent mortality rating: A (50-100)

## N#Cc1cc(C(F)(F)F)ccc1NC(=O)c1cc(NC(=O)C2C(c3cc(Cl)cc(Cl)c3)C2(Cl)Cl)ccc1Cl (stereo not drawn) [c53]
[1]
  Test B: Bioassay on CL, percent mortality rating: A (50-100)
[2]
  Test C: Bioassay on Yellow Fever Mosquito, mortality rating: A (80-100)
[3]
  Test A: Bioassay on BAW, percent mortality rating: A (50-100)

## N#Cc1ccc(NC(=O)c2cc(NC(=O)C3C(c4cc(Cl)cc(Cl)c4)C3(Cl)Cl)ccc2Cl)cc1C(F)(F)F (stereo not drawn) [c54]
[1]
  Test B: Bioassay on CL, percent mortality rating: A (50-100)
[2]
  Test C: Bioassay on Yellow Fever Mosquito, mortality rating: A (80-100)
[3]
  Test A: Bioassay on BAW, percent mortality rating: A (50-100)

## O=C(Nc1ccc2c(c1)C(=O)NC2=O)c1cc(NC(=O)C2C(c3cc(Cl)cc(Cl)c3)C2(Cl)Cl)ccc1Cl (stereo not drawn) [c55]
[1]
  Test B: Bioassay on CL, percent mortality rating: A (50-100)
[2]
  Test C: Bioassay on Yellow Fever Mosquito, mortality rating: D (No activity noticed in this bioassay)
[3]
  Test A: Bioassay on BAW, percent mortality rating: A (50-100)

## N#Cc1cc(N)ccc1NC(=O)c1cc(NC(=O)C2C(c3cc(Cl)cc(Cl)c3)C2(Cl)Cl)ccc1Cl (stereo not drawn) [c56]
[1]
  Test B: Bioassay on CL, percent mortality rating: A (50-100)
[2]
  Test C: Bioassay on Yellow Fever Mosquito, mortality rating: A (80-100)
[3]
  Test A: Bioassay on BAW, percent mortality rating: A (50-100)

## CC(=O)N(C(C)=O)c1ccc(NC(=O)c2cc(NC(=O)C3C(c4cc(Cl)cc(Cl)c4)C3(Cl)Cl)ccc2Cl)c(C#N)c1 (stereo not drawn) [c57]
[1]
  Test B: Bioassay on CL, percent mortality rating: A (50-100)
[2]
  Test C: Bioassay on Yellow Fever Mosquito, mortality rating: A (80-100)
[3]
  Test A: Bioassay on BAW, percent mortality rating: A (50-100)

## CNc1ccc(NC(=O)c2cc(NC(=O)C3C(c4cc(Cl)cc(Cl)c4)C3(Cl)Cl)ccc2Cl)c(C#N)c1 (stereo not drawn) [c58]
[1]
  Test B: Bioassay on CL, percent mortality rating: A (50-100)
[2]
  Test C: Bioassay on Yellow Fever Mosquito, mortality rating: A (80-100)
[3]
  Test A: Bioassay on BAW, percent mortality rating: A (50-100)

## Cc1cc(N)ccc1NC(=O)c1cc(NC(=O)C2C(c3cc(Cl)cc(Cl)c3)C2(Cl)Cl)ccc1Cl (stereo not drawn) [c59]
[1]
  Test B: Bioassay on CL, percent mortality rating: A (50-100)
[2]
  Test C: Bioassay on Yellow Fever Mosquito, mortality rating: A (80-100)
[3]
  Test A: Bioassay on BAW, percent mortality rating: A (50-100)

## O=C1Cc2cc(NC(=O)c3cc(NC(=O)C4C(c5cc(Cl)cc(Cl)c5)C4(Cl)Cl)ccc3Cl)ccc2N1 (stereo not drawn) [c60]
[1]
  Test B: Bioassay on CL, percent mortality rating: A (50-100)
[2]
  Test C: Bioassay on Yellow Fever Mosquito, mortality rating: A (80-100)
[3]
  Test A: Bioassay on BAW, percent mortality rating: A (50-100)

## O=C(Nc1cc2cc[nH]c2cn1)c1cc(NC(=O)C2C(c3cc(Cl)cc(Cl)c3)C2(Cl)Cl)ccc1Cl (stereo not drawn) [c61]
[1]
  Test B: Bioassay on CL, percent mortality rating: A (50-100)
[2]
  Test C: Bioassay on Yellow Fever Mosquito, mortality rating: A (80-100)
[3]
  Test A: Bioassay on BAW, percent mortality rating: A (50-100)

## O=C(Nc1ccc2nccn2c1)c1cc(NC(=O)C2C(c3cc(Cl)cc(Cl)c3)C2(Cl)Cl)ccc1Cl (stereo not drawn) [c62]
[1]
  Test B: Bioassay on CL, percent mortality rating: A (50-100)
[2]
  Test C: Bioassay on Yellow Fever Mosquito, mortality rating: A (80-100)
[3]
  Test A: Bioassay on BAW, percent mortality rating: A (50-100)

## Cn1ncc2cc(NC(=O)c3cc(NC(=O)C4C(c5cc(Cl)cc(Cl)c5)C4(Cl)Cl)ccc3Cl)cnc21 (stereo not drawn) [c63]
[1]
  Test B: Bioassay on CL, percent mortality rating: A (50-100)
[2]
  Test C: Bioassay on Yellow Fever Mosquito, mortality rating: A (80-100)
[3]
  Test A: Bioassay on BAW, percent mortality rating: A (50-100)

## Cc1ccc2c(NC(=O)c3cc(NC(=O)C4C(c5cc(Cl)cc(Cl)c5)C4(Cl)Cl)ccc3Cl)n[nH]c2c1 (stereo not drawn) [c64]
[1]
  Test B: Bioassay on CL, percent mortality rating: A (50-100)
[2]
  Test C: Bioassay on Yellow Fever Mosquito, mortality rating: A (80-100)
[3]
  Test A: Bioassay on BAW, percent mortality rating: A (50-100)

## Cc1cc(N2C(=O)C=CC2=O)ccc1NC(=O)c1cc(NC(=O)C2C(c3cc(Cl)cc(Cl)c3)C2(Cl)Cl)ccc1Cl (stereo not drawn) [c65]
[1]
  Test B: Bioassay on CL, percent mortality rating: A (50-100)
[2]
  Test C: Bioassay on Yellow Fever Mosquito, mortality rating: A (80-100)
[3]
  Test A: Bioassay on BAW, percent mortality rating: A (50-100)

## O=C(Nc1cnc2[nH]ccc2c1)c1cc(NC(=O)C2C(c3cc(Cl)cc(Cl)c3)C2(Cl)Cl)ccc1Cl (stereo not drawn) [c66]
[1]
  Test B: Bioassay on CL, percent mortality rating: A (50-100)
[2]
  Test C: Bioassay on Yellow Fever Mosquito, mortality rating: A (80-100)
[3]
  Test A: Bioassay on BAW, percent mortality rating: A (50-100)

## CCOC(=O)c1cc2cc(NC(=O)c3cc(NC(=O)C4C(c5cc(Cl)cc(Cl)c5)C4(Cl)Cl)ccc3Cl)ccc2[nH]1 (stereo not drawn) [c67]
[1]
  Test B: Bioassay on CL, percent mortality rating: A (50-100)
[2]
  Test C: Bioassay on Yellow Fever Mosquito, mortality rating: A (80-100)
[3]
  Test A: Bioassay on BAW, percent mortality rating: A (50-100)

## CC(C)(C)OC(=O)n1ccc2cc(NC(=O)c3cc(NC(=O)C4C(c5cc(Cl)cc(Cl)c5)C4(Cl)Cl)ccc3Cl)ccc21 (stereo not drawn) [c68]
[1]
  Test B: Bioassay on CL, percent mortality rating: A (50-100)
[2]
  Test C: Bioassay on Yellow Fever Mosquito, mortality rating: D (No activity noticed in this bioassay)
[3]
  Test A: Bioassay on BAW, percent mortality rating: A (50-100)
